Data from patent publication US5969017A, “Methods of treating or preventing cardiac arrhythmia” (Merck & Co., Inc., priority 1997, dated 1999).
Read-outs that look alike come from different tables or passages of the source.

Molecular target: T1, IKur in human atrial myocytes (Homo sapiens, UniProt P22460)
T1 construct: Human myocytes were isolated from specimens of right atrial appendage obtained from patients; endogenous in cells; host or cells: human atrial myocytes from right atrial appendage of patients undergoing cardiopulmonary bypass
Experiment: Voltage clamp measurement of IKur block (rested state, use-dependent, rate-dependent) in human atrial myocytes
Type: cell-based
Conditions: for inhibition at 0.03 µM / Rate-Dpdnt Ratio / Use-Dpdnt Ratio / inhibition at 0.1 µM / inhibition at 0.3 µM / inhibition at 1 µM: human atria; for Rate-Dpdnt Ratio: 3 Hz vs 1 Hz, last pulse, <1 = rate-dependent; for Use-Dpdnt Ratio: 10th vs 1st pulse @ 1 Hz, <1 = use-dependent; for selective blockade of IKur (in words): relative to other cardiac K+ channels
Text: B. Measurement of IKur in Human Atrial Myocytes
Isolation of Human Atrial Myocytes:
Human myocytes were isolated from specimens of right atrial appendage obtained from patients undergoing cardiopulmonary bypass, using a modification of the procedure described by Fermini B, Wang Z, Duan D and Nattel S., "Differences in rate dependence of transient outward current in rabbit and human atrium" Am. J. Physiol. […] All tissues were collected in accordance with Temple University School of Medicine Institutional guidelines. […] Tissue samples were quickly immersed in cold (0-4° C.) cardioplegia solution containing (in mM/L): 50 KH2 PO4, 8 MgSO4, 10 NaHCO3, 5 adenosine, 25 taurine, 140 glucose, and 100 mannitol, pH 7.4 and bubbled with 100% O2. […] The tissue was gently agitated by continuous bubbling with 100% O2 for 5 min. […] The supernatant was removed after 40 min and discarded. The chunks were then incubated in a solution of the same ionic composition but supplemented with only collagenase and […]. Microscopic examination of the medium was performed every 10-20 min to determine the number and quality of isolated cells. When the yield appeared maximal, the tissue chunks were suspended in a modified Kraftbruhe solution containing (in mM/L): 25 KCl, 10 KH2 PO4, 25 taurine, 0.5 EGTA, 22 glucose, 55 glutamic acid, and 0.1% bovine albumin, pH 7.3 (22-24° C.) and gently triturated using a large bore Pasteur pipette. The supernatant was collected in a 50 ml centrifuge tube. […] Cells were used within 2-24 hr after isolation.
A small aliquot of the solution containing the isolated human atrial myocytes was placed in a 1-ml chamber mounted on the stage of an inverted microscope. Five minutes were allowed for cell adhesion to the bottom of the chamber. To record IKur, human atrial myocytes were superfused with a solution of the same ionic composition as that used for Kv1.5. An alternative external solution was sometimes used in which NaCl was replaced with NMDG (formal name: N-methyl-d-glucamine) to inhibit INa.
Currents were elicited by 150 ms depolarizing test pulses to +40 mV from a holding potential of -50 mV to inactivate Ito and INa. The amplitude of IKur was measured as the amplitude of the time-dependentcurrent at the end of the test pulse, relative to the holding current level. […] All experiments were performed at room temperature (22-24° C.).
C. Measurement of Use-Dependent and Rate-Dependent Block.
Pulses were applied in 10 second long trains delivered after 30 second rest intervals at frequencies of 1 Hz (10 pulses) or 3 Hz (30 pulses). Percent block of the current is defined as the % decrease in the current amplitude produced by an agent during a given pulse relative to the control current amplitude for that pulse. Rested-state block is the block of the current during the first pulse in a train following the 30 sec rest period. Use-dependent block is block that occurs to a progessively greater extent with each successive depolarization in a train or sequence of pulses or depolarizations delivered at a given rate or frequency. Thus, during a train of 10 depolarizations at frequency of 1 Hz, use-dependent block is assessed as the ratio of the amount of block for the 10th pulse relative to block for the 1st pulse (rested state block) of the train. Rate-dependent block is block that occurs to a greater extent or preferentially at faster rates of depolarization or heart rates. Thus, rate-dependent block is assessed as the ratio of the amount of block of the current during the last pulse of the 10 sec train at 3 Hz vs. 1 Hz. Consequently, ratios of less than one (<1) are indicative of use-dependentand rate-dependent block and the lower the ratio the greater the degree of use and rate dependence.

[1] = 30 nM, 1st pulse @ 1 Hz, +40 mV from -50 mV, read-out: Average % Block, Rested State, 1st pulse
[2] = 30 nM, 10th pulse @ 1 Hz, read-out: Average % Block, Use-Dpdnt, 10th pulse
[3] = 30 nM, 30th pulse @ 3 Hz, read-out: Average % Block, Rate-Dpdnt, 30th pulse
[4] = 100 nM, 1st pulse @ 1 Hz, read-out: Average % Block, Rested State, 1st pulse
[5] = 100 nM, 10th pulse @ 1 Hz, read-out: Average % Block, Use-Dpdnt, 10th pulse
[6] = 100 nM, 30th pulse @ 3 Hz, read-out: Average % Block, Rate-Dpdnt, 30th pulse

T1 sequence (P22460 whole entry): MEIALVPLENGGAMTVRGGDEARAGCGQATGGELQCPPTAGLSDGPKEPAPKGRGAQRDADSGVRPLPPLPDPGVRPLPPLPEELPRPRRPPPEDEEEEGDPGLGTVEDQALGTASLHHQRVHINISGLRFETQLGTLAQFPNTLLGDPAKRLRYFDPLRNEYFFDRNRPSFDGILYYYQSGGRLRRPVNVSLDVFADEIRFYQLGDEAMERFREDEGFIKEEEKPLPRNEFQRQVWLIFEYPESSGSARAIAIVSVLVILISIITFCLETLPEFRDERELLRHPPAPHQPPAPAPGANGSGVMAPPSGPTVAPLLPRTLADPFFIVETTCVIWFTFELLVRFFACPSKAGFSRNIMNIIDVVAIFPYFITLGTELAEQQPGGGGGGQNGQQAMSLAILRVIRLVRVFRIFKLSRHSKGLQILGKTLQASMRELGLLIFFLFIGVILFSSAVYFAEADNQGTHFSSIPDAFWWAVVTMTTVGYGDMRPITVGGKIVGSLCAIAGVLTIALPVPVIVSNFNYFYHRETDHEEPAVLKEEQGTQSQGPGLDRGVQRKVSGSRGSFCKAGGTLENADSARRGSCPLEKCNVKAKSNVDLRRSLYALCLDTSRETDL

SMILES	inhibition at 0.03 µM [1] [%]	inhibition at 0.03 µM [2] [%]	inhibition at 0.03 µM [3] [%]	inhibition at 0.1 µM [4] [%]	Rate-Dpdnt Ratio (100 nM)	inhibition at 0.1 µM [5] [%]	Use-Dpdnt Ratio (100 nM)	inhibition at 0.1 µM [6] [%]	use-dependent block of IKur (in words) (human atrial myocytes)	selective blockade of IKur (in words) (human atrial myocytes)	other results
COc1ccc(-n2nc(Sc3ccc(Cl)cc3)c(C)c(C#N)c2=O)cc1 [C, 6-(4-Chlorophenylthio)-2-(4-methoxyphenyl)-5-methyl-3-oxo-2,3-dihydropyridazine-4-carbonitrile]	35.7	43.2	42.9	63.8	1.13	67.9	0.94	60.1	use-dependentblockade	selective blockade	Rate-Dpdnt Ratio (30 nM): 1.01; Use-Dpdnt Ratio (30 nM): 0.83; IC50 (first pulse of 10 at 1 Hz, +40 mV from -50 mV, read-out: Rested State IC50, IKur in Human Atrium): 130 nM
CC1CCC(C(C)C)C(P(=O)(c2ccccc2)c2ccccc2)C1 (stereo not drawn) [A, (2-Isopropyl-5-methylcyclohexyl)diphenylphosphine oxide]	21.9	33	48.4	35.6		59.7		75.7	use-dependentblockade		rate-dependent block of IKur (in words) (human atrial myocytes): strong rate-dependent profile; use-dependent block of IKur (in words) (human atrial myocytes, listed as (2-isopropyl-5-methylcyclohexyl)diphenyl-phosphine oxide): strong use-dependent profile
Cc1cc(C)c(CP(=O)(c2ccccc2)c2ccccc2)c(-c2ccc(F)c(C)c2)c1 [B, 2-(Diphenylphosphinylmethyl)-4'-fluoro-3,5,3'-trimethyl-biphenyl]				10.4	1.53	17.8	0.58	11.6	use-dependentblockade	selective blockade	inhibition at 0.3 µM (300 nM, 1st pulse @ 1 Hz, read-out: Average % Block, Rested State, 1st pulse): 25.8%; Rate-Dpdnt Ratio (300 nM): 0.93; inhibition at 0.3 µM (300 nM, 10th pulse @ 1 Hz, read-out: Average % Block, Use-Dpdnt, 10th pulse): 31.3%; Use-Dpdnt Ratio (300 nM): 0.82; inhibition at 0.3 µM (300 nM, 30th pulse @ 3 Hz, read-out: Average % Block, Rate-Dpdnt, 30th pulse): 33.8%
COc1ccc(-n2nc(Sc3ccc(C)cc3)c(C)c(C#N)c2=O)cc1 [D]				61		68	0.90		use-dependentblockade	selective blockade	inhibition at 1 µM (1000 nM, 1st pulse @ 1 Hz, read-out: Average % Block, Rested State, 1st pulse): 81.7%; inhibition at 1 µM (1000 nM, 10th pulse @ 1 Hz, read-out: Average % Block, Use-Dpdnt, 10th pulse): 80%; Use-Dpdnt Ratio (1000 nM): 1.02
